Laboratory results published in patent US6376497B1, “Antifungal azole derivatives having a fluorinated vinyl group and process for preparing same” (Korea Research Institute of Chemical Technology, priority 1999, dated 2002).
≈ marks a conversion by molar mass, not a printed value.

Columns and labels:
Assay in all cases: In vitro antifungal activity, microbroth dilution MIC
Format in all cases: cell-based
[1] = tested on: Candida pseudotropicalis K. 11658; settings: 4 to 48 hours; for Minimal inhibitory concentration(MIC), C. pseudotropicalis K. 11658: RPMI-1640, 35° C., no growth observed; for Minimal inhibitory concentration (MIC): C. pseudotropicalis K. 11658, RPMI-1640, 35° C.
Outline: (§1)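 Broth microdilution adapted from NCCLS M27, in RPMI-1640 with 0.165 M MOPS, pH 7.0. Yeast or mould inoculum at 2×10^3 CFU/ml was mixed 1:1 with DMSO-derived compound solutions (200 to 0.10 μg/ml before mixing) and incubated at 35 °C for 4 to 48 h. MIC was the concentration showing no growth.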

[2] = tested on: Candida tropicalis A. 13803; settings: 4 to 48 hours; for Minimal inhibitory concentration(MIC), C. tropicalis A. 13803: RPMI-1640, 35° C., no growth observed; for Minimal inhibitory concentration (MIC): C. tropicalis A. 13803, RPMI-1640, 35° C.
Outline: as §1

[3] = tested on: Candida parapsitosis A. 7330; settings: 4 to 48 hours; for Minimal inhibitory concentration(MIC), C. parapsitosis A. 7330: RPMI-1640, 35° C., no growth observed; for Minimal inhibitory concentration (MIC): C. parapsitosis A. 7330, RPMI-1640, 35° C.
Outline: as §1

[4] = tested on: Candida albicans IFO. 1385; settings: 4 to 48 hours; for Minimal inhibitory concentration(MIC), C. albicans IFO. 1385: RPMI-1640, 35° C., no growth observed; for Minimal inhibitory concentration (MIC): C. albicans IFO. 1385, RPMI-1640, 35° C.
Outline: as §1

[5] = tested on: Cryptococcus neoformans A. 34144; settings: 4 to 48 hours; for Minimal inhibitory concentration(MIC), Cry. neoformans A. 34144: RPMI-1640, 35° C., no growth observed; for Minimal inhibitory concentration (MIC): Cry. neoformans A. 34144, RPMI-1640, 35° C.
Outline: as §1

[6] = tested on: Aspergillus furnigatus B. 19119; settings: 4 to 48 hours; for Minimal inhibitory concentration(MIC), A furnigatus B. 19119: RPMI-1640, 35° C., no growth observed; for Minimal inhibitory concentration (MIC): A furnigatus B. 19119, RPMI-1640, 35° C.
Outline: as §1

[7] = tested on: Candida krusei K. 11655; settings: 4 to 48 hours; for Minimal inhibitory concentration(MIC), C. krusei K. 11655: RPMI-1640, 35° C., no growth observed; for Minimal inhibitory concentration (MIC): C. krusei K. 11655, RPMI-1640, 35° C.
Outline: as §1

[8] = tested on: Cryptococcus neoformans IFM. 40092; settings: 4 to 48 hours; for Minimal inhibitory concentration(MIC), Cry. neoformans IFM. 40092: RPMI-1640, 35° C., no growth observed; for Minimal inhibitory concentration (MIC): Cry. neoformans IFM. 40092, RPMI-1640, 35° C.
Outline: as §1

[9] = tested on: Candida albicans C1-2; settings: 4 to 48 hours; for Minimal inhibitory concentration(MIC), C. albicans C1-2: RPMI-1640, 35° C., no growth observed; for Minimal inhibitory concentration (MIC): C. albicans C1-2, RPMI-1640, 35° C.
Outline: as §1

[10] = tested on: Trichophyton mentagrophytes A. 9129; settings: 4 to 48 hours; for Minimal inhibitory concentration(MIC), T. mentagrophytes A. 9129: RPMI-1640, 35° C., no growth observed; for Minimal inhibitory concentration (MIC): T. mentagrophytes A. 9129, RPMI-1640, 35° C.
Outline: as §1

[11] = tested on: Aspergillus niger A. 16404; settings: 4 to 48 hours; for Minimal inhibitory concentration(MIC), A. niger A. 16404: RPMI-1640, 35° C., no growth observed; for Minimal inhibitory concentration (MIC): A. niger A. 16404, RPMI-1640, 35° C.
Outline: as §1

[12] = tested on: Cryptococcus neoformans B. 42419; settings: 4 to 48 hours; for Minimal inhibitory concentration(MIC), Cry. neoformans B. 42419: RPMI-1640, 35° C., no growth observed; for Minimal inhibitory concentration (MIC): Cry. neoformans B. 42419, RPMI-1640, 35° C.
Outline: as §1

[13] = tested on: Torulopsis glabrata B. 16205; settings: 4 to 48 hours; for Minimal inhibitory concentration(MIC), T. glabrata B. 16205: RPMI-1640, 35° C., no growth observed; for Minimal inhibitory concentration (MIC): T. glabrata B. 16205, RPMI-1640, 35° C.
Outline: as §1

[14] = tested on: Trichophyton mentagrophytes B. 32663; settings: 4 to 48 hours; for Minimal inhibitory concentration(MIC), T. mentagrophytes B. 32663: RPMI-1640, 35° C., no growth observed; for Minimal inhibitory concentration (MIC): T. mentagrophytes B. 32663, RPMI-1640, 35° C.
Outline: as §1

[15] = tested on: Candida albicans A. 10231; settings: 4 to 48 hours; for Minimal inhibitory concentration(MIC), C. albicans A. 10231: RPMI-1640, 35° C., no growth observed; for Minimal inhibitory concentration (MIC): C. albicans A. 10231, RPMI-1640, 35° C.
Outline: as §1

Row | Structure (SMILES) | Minimal inhibitory concentration(MIC), C. pseudotropicalis K. 11658 [1] [µg/mL] | Minimal inhibitory concentration(MIC), C. tropicalis A. 13803 [2] [µg/mL] | Minimal inhibitory concentration(MIC), C. parapsitosis A. 7330 [3] [µg/mL] | Minimal inhibitory concentration(MIC), C. albicans IFO. 1385 [4] [µg/mL] | Minimal inhibitory concentration(MIC), Cry. neoformans A. 34144 [5] [µg/mL] | Minimal inhibitory concentration (MIC) [1] [µg/mL] | Minimal inhibitory concentration (MIC) [2] [µg/mL] | Minimal inhibitory concentration (MIC) [3] [µg/mL] | Minimal inhibitory concentration (MIC) [4] [µg/mL] | Minimal inhibitory concentration (MIC) [5] [µg/mL] | Minimal inhibitory concentration (MIC) [6] [µg/mL] | Minimal inhibitory concentration (MIC) [7] [µg/mL] | Minimal inhibitory concentration (MIC) [8] | Minimal inhibitory concentration (MIC) [9] [µg/mL] | Minimal inhibitory concentration (MIC) [10] | Minimal inhibitory concentration (MIC) [11] [µg/mL] | Minimal inhibitory concentration (MIC) [12] [µg/mL] | Minimal inhibitory concentration (MIC) [13] [µg/mL] | Minimal inhibitory concentration (MIC) [14] [µg/mL] | Minimal inhibitory concentration (MIC) [15] [µg/mL] | further results
1 | FC(Oc1ccc(OCC2COC(Cn3ccnc3)(c3ccc(F)cc3F)O2)cc1)=C(c1cccc(F)c1)C(F)(F)F (mixture of isomers) [Ex. 115] | >100 | 100 | >100 | 1.56 | 1.56 | – | – | – | – | – | – | – | – | – | – | – | – | – | – | – | Minimal inhibitory concentration(MIC), A furnigatus B. 19119 [6]: >100 µg/mL; Minimal inhibitory concentration(MIC), C. krusei K. 11655 [7]: >100 µg/mL; Minimal inhibitory concentration(MIC), Cry. neoformans IFM. 40092 [8]: 0.39 µg/mL; Minimal inhibitory concentration(MIC), C. albicans C1-2 [9]: 25.0 µg/mL; Minimal inhibitory concentration(MIC), T. mentagrophytes A. 9129 [10]: 6.25 µg/mL; Minimal inhibitory concentration(MIC), A. niger A. 16404 [11]: >100 µg/mL; Minimal inhibitory concentration(MIC), Cry. neoformans B. 42419 [12]: 3.13 µg/mL; Minimal inhibitory concentration(MIC), T. glabrata B. 16205 [13]: 50.0 µg/mL; Minimal inhibitory concentration(MIC), T. mentagrophytes B. 32663 [14]: 3.13 µg/mL; Minimal inhibitory concentration(MIC), C. albicans A. 10231 [15]: 25.0 µg/mL
2 | CCOc1ccc(C=C(F)OCC2COC(Cn3ccnc3)(c3ccc(Cl)cc3Cl)O2)cc1 (stereo not drawn) [Ex. 10] | – | – | – | – | – | 6.25 (≈ 12.7 µM) | 50.0 (≈ 101 µM) | 12.5 (≈ 25.3 µM) | 1.56 (≈ 3.16 µM) | 1.56 (≈ 3.16 µM) | 12.5 (≈ 25.3 µM) | 25.0 (≈ 50.7 µM) | ≦0.10 μg/ml | 12.5 (≈ 25.3 µM) | 6.25 µg/mL (≈ 12.7 µM) | 50.0 (≈ 101 µM) | 1.56 (≈ 3.16 µM) | 12.5 (≈ 25.3 µM) | 1.56 (≈ 3.16 µM) | 25.0 (≈ 50.7 µM) | –
3 | Cc1ccc(C(=C(F)OCC2COC(Cn3ccnc3)(c3ccc(Cl)cc3Cl)O2)C(F)(F)F)cc1 (stereo not drawn) [Ex. 21] | – | – | – | – | – | 100 (≈ 188 µM) | 25.0 (≈ 47.1 µM) | >100 | 0.78 (≈ 1.47 µM) | 0.78 (≈ 1.47 µM) | 50.0 (≈ 94.1 µM) | >100 | 0.39 µg/mL (≈ 0.734 µM) | 6.25 (≈ 11.8 µM) | 12.5 µg/mL (≈ 23.5 µM) | 100 (≈ 188 µM) | 1.56 (≈ 2.94 µM) | 12.5 (≈ 23.5 µM) | 6.25 (≈ 11.8 µM) | 6.25 (≈ 11.8 µM) | –
4 | FC(OCC1COC(Cn2ccnc2)(c2ccc(F)cc2F)O1)=C(c1ccc(F)cc1)C(F)(F)F (mixture of isomers) [Ex. 66] | – | – | – | – | – | 50.0 | 100 | >100 | 0.39 | 0.78 | 6.25 | 100 | ≦0.10 μg/ml | 12.5 | 6.25 µg/mL | >100 | 0.39 | 6.25 | 3.13 | 12.5 | –
5 | FC(=Cc1ccccc1)OC[C@H]1CO[C@](Cn2ccnc2)(c2ccc(Cl)cc2Cl)O1 (relative stereo) [Example 1, (E&Z) 1-[cis-2-(2,4-dichlorophenyl)-2-(1H-1-imidazolylmethyl)-1,3-dioxolan-4-ylmethoxy]-1-fluoro-2-phenyl-1-ethene] | – | – | – | – | – | 6.25 (≈ 13.9 µM) | 50.0 (≈ 111 µM) | 6.25 (≈ 13.9 µM) | 3.13 (≈ 6.97 µM) | 0.39 (≈ 0.868 µM) | 1.56 (≈ 3.47 µM) | 6.25 (≈ 13.9 µM) | 0.20 µg/mL (≈ 0.445 µM) | 25.0 (≈ 55.6 µM) | ≦0.10 μg/ml | 1.56 (≈ 3.47 µM) | 0.39 (≈ 0.868 µM) | 25.0 (≈ 55.6 µM) | 0.20 (≈ 0.445 µM) | 25.0 (≈ 55.6 µM) | –
6 | FC(=Cc1ccccc1)Oc1ccc(OCC2COC(Cn3ccnc3)(c3ccc(Cl)cc3Cl)O2)cc1 (mixture of isomers) [Ex. 88] | >100 | >100 | >100 | 6.25 | 1.56 | – | – | – | – | – | – | – | – | – | – | – | – | – | – | – | Minimal inhibitory concentration(MIC), A furnigatus B. 19119 [6]: >100 µg/mL; Minimal inhibitory concentration(MIC), C. krusei K. 11655 [7]: >100 µg/mL; Minimal inhibitory concentration(MIC), Cry. neoformans IFM. 40092 [8]: 0.78 µg/mL; Minimal inhibitory concentration(MIC), C. albicans C1-2 [9]: 100 µg/mL; Minimal inhibitory concentration(MIC), T. mentagrophytes A. 9129 [10]: 100 µg/mL; Minimal inhibitory concentration(MIC), A. niger A. 16404 [11]: 100 µg/mL; Minimal inhibitory concentration(MIC), Cry. neoformans B. 42419 [12]: 1.56 µg/mL; Minimal inhibitory concentration(MIC), T. glabrata B. 16205 [13]: >100 µg/mL; Minimal inhibitory concentration(MIC), T. mentagrophytes B. 32663 [14]: 100 µg/mL; Minimal inhibitory concentration(MIC), C. albicans A. 10231 [15]: 100 µg/mL
7 | CCc1ccc(C=C(F)OCC2COC(Cn3cncn3)(c3ccc(Cl)cc3Cl)O2)cc1 (mixture of isomers) [Ex. 72] | 12.5 | 25.0 | 100 | 1.56 | 3.13 | – | – | – | – | – | – | – | – | 25.0 | – | – | – | – | – | 250 | Minimal inhibitory concentration(MIC), A furnigatus B. 19119 [6]: >100 µg/mL; Minimal inhibitory concentration(MIC), C. krusei K. 11655 [7]: 25.0 µg/mL; Minimal inhibitory concentration(MIC), Cry. neoformans IFM. 40092 [8]: 1.56 µg/mL; Minimal inhibitory concentration(MIC), T. mentagrophytes A. 9129 [10]: 12.5 µg/mL; Minimal inhibitory concentration(MIC), A. niger A. 16404 [11]: >100 µg/mL; Minimal inhibitory concentration(MIC), Cry. neoformans B. 42419 [12]: 3.13 µg/mL; Minimal inhibitory concentration(MIC), T. glabrata B. 16205 [13]: 25.0 µg/mL; Minimal inhibitory concentration(MIC), T. mentagrophytes B. 32663 [14]: 12.5 µg/mL
